Columns and labels:
Assay type in all cases: cell-based, murine
MutuDC1940 cells [1] = assay: Cell death assay (propidium iodide, number of dead cells by Incucyte)
Procedure: (§1) 1.5×10^4 cells (MutuDC1940) were plated onto 96 wells plates. Next day, cells were treated at 8 μM of compound 6 or vemurafenib or with the vehicle (DMSO) in presence of 0.3 μg/ml of propidium iodide (Sigma) to detect cell death. Proliferation and cell death were quantified by Incucyte® (Essen Biosciences) according to manufacturer's instructions over 48 h.
(§2) The results obtained for the cell death assay are presented on FIG. 3. FIG. 3 presents the number of dead cells observed during time for a culture of MutuDC1940 cells, a murine model of histiocytosis, treated at 8 μM with compound 6 according to the invention or with vemurafenib (a MAPK/BRAF inhibitor), or with the vehicle (DMSO).
(§3) The same experiments regarding cell proliferation (assessed by confluence in %) and cell death (assessed by number of dead cells on 13 mm^2) as in Example 1 were repeated with additional ERK/MyD88 inhibitors of formula (I): compounds 2, 7 and 17.
(§4) The same experiments regarding cell proliferation (assessed by confluence in %) and cell death (assessed by number of dead cells on 13 mm^2) as in Example 1 were repeated with a lower concentration, which corresponds to the IC50 of vemurafenib (BRAF inhibitor).

MutuDC1940 cells [2] = assay: CXCL2 quantification assay (ELISA); details: 8 μM, 16 h or 24 h treatment, vs DMSO
Procedure: 0.5×10^6 cells (MutuDC1940) were plated onto 6-well plates. Next day, cells were treated with 8 μM of compound 6 or DMSO for 16 or 24 hours. Each condition was performed in triplicate. Supernatants were collected and murine CXCL2 was measured by ELISA according to the manufacturer's instructions (Invitrogen).

MutuDC1940 cells [3] = assay: Proliferation assay (confluence by Incucyte)
Procedure: as §1
as §2, with “proliferation” for “cell death”, “2.” for “3.”, “2” for “3”, “confluence, i.e. the percentage” for “number”, “the surface of the culture dish that is covered by the cells,” for “dead cells”
as §3, §4

[4] = 8 μM, over 48 h, vs vehicle (DMSO)

Structure (SMILES): COc1ccc(NC(=O)c2ccc3[nH]c(-c4ccc(N(C)C)cc4)nc3c2)cn1 [compound 6]
- cell death (number of dead cells on 13 mm^2) (MutuDC1940 cells [1]; [4]): induces the death of the cells
- production of CXCL2 (cytokine production) (MutuDC1940 cells [2]): induces cytokine production
- cell proliferation (confluence in %) (MutuDC1940 cells [3]; [4]): inhibits the proliferation of the cells

Structure (SMILES): CC(C)Nc1cc(-c2c[nH]c(C(=O)N[C@H](CO)c3cccc(Cl)c3)c2)c(Cl)cn1 [ulixertinib, reference compound]
- cell death (number of dead cells on 13 mm^2) (MutuDC1940 cells [1]; ulixertinib at 1 μM, FIG. 12): no effect on cell death
- cell proliferation (confluence in %) (MutuDC1940 cells [3]; ulixertinib at 1 μM, FIG. 11): only inhibit proliferation

— patent US20250235458A1, “Benzimidazole derivatives for use in the treatment or prevention of a histiocytosis or a craniopharyngioma” (UNIVERSITE CLAUDE BERNARD LYON 1, priority 2021, published 2025)
